Species on record: Rattus norvegicus
Assay: Open TG-GATES - Regimen: Single
Assay type: toxicity, organism-based, Sprague-Dawley
Design: regimen Single, gender Male, age 6 weeks
Conditions: in vivo, po, 300 mg/kg, route gavage, dose level High; for APTT / Bas / Eos / Fbg / Hb / Ht / Lym / MCH / MCV / Mono / Neu / PT / Plat / RBC / Ret / WBC: tissue Blood; for KIDNEY_L / KIDNEY_R / KIDNEY_TOTAL: tissue Kidney; for LIVER: tissue Liver; for ALP / ALT / AST / BUN / CRE / Ca / Cl / DBIL / GLC / IP / K / LDH / Na / PL / RALB / TBIL / TG / TP / gamma-GTP: tissue Plasma

Compound: NC(=O)N1c2ccccc2C=Cc2ccccc21 [CARBAMAZEPINE]
- TERMINAL_BW (3 h): 216.2 g
- APTT (3 h): 20.3 s
- Bas (3 h): 0%
- Eos (3 h): 1%
- Fbg (3 h): 202 mg/dL
- Hb (3 h): 13 g/dL
- Ht (3 h): 38.4%
- Lym (3 h): 80%
- MCH (3 h): 21.6 pg
- MCV (3 h): 63.7 fL
- Mono (3 h): 2.2%
- Neu (3 h): 15.8%
- PT (3 h): 12.5 s
- Plat (3 h): 116.4 x10_4/uL
- RBC (3 h): 602.6 x10_4/ul
- Ret (3 h): 7%
- WBC (3 h): 87.3 x10_2/uL
- KIDNEY_L (3 h): 1 g
- KIDNEY_R (3 h): 1 g
- KIDNEY_TOTAL (3 h): 2 g
- LIVER (3 h): 9.7 g
- ALP (3 h): 789.4 IU/L
- ALT (3 h): 34.4 IU/L
- AST (3 h): 65 IU/L
- BUN (3 h): 10.2 mg/dL
- CRE (3 h): 0.4 mg/dL
- Ca (3 h): 10.3 mg/dL
- Cl (3 h): 101.8 meq/L
- DBIL (3 h): 0.082 mg/dL
- GLC (3 h): 194.8 mg/dL
- IP (3 h): 10 mg/dL
- K (3 h): 3.8 meq/L
- LDH (3 h): 199.6 IU/L
- Na (3 h): 140.2 meq/L
- PL (3 h): 150.8 mg/dL
- RALB (3 h): 3.4 g/dL
- TBIL (3 h): 0.1 mg/dL
- TG (3 h): 63 mg/dL
- TP (3 h): 5.4 g/dL
- gamma-GTP (3 h): 1 IU/L
- TERMINAL_BW (6 h): 212.3 g
- APTT (6 h): 20 s
- Bas (6 h): 0%
- Eos (6 h): 1%
- Fbg (6 h): 205.6 mg/dL
- Hb (6 h): 13.2 g/dL
- Ht (6 h): 38.6%
- Lym (6 h): 80.6%
- MCH (6 h): 21.2 pg
- MCV (6 h): 61.9 fL
- Mono (6 h): 3%
- Neu (6 h): 14%
- PT (6 h): 12.8 s
- Plat (6 h): 123.1 x10_4/uL
- RBC (6 h): 623 x10_4/ul
- Ret (6 h): 6.2%
- WBC (6 h): 86.4 x10_2/uL
- KIDNEY_L (6 h): 1 g
- KIDNEY_R (6 h): 1 g
- KIDNEY_TOTAL (6 h): 2 g
- LIVER (6 h): 9.2 g
- ALP (6 h): 891 IU/L
- ALT (6 h): 35.4 IU/L
- AST (6 h): 68 IU/L
- BUN (6 h): 8.6 mg/dL
- CRE (6 h): 0.4 mg/dL
- Ca (6 h): 10.4 mg/dL
- Cl (6 h): 102.8 meq/L
- DBIL (6 h): 0.074 mg/dL
- GLC (6 h): 188.2 mg/dL
- IP (6 h): 9.9 mg/dL
- K (6 h): 3.7 meq/L
- LDH (6 h): 203.4 IU/L
- Na (6 h): 140.8 meq/L
- PL (6 h): 146 mg/dL
- RALB (6 h): 3.4 g/dL
- TBIL (6 h): 0.1 mg/dL
- TG (6 h): 41.8 mg/dL
- TP (6 h): 5.6 g/dL
- gamma-GTP (6 h): 0.6 IU/L
- TERMINAL_BW (9 h): 212.2 g
- APTT (9 h): 20 s
- Bas (9 h): 0%
- Eos (9 h): 1%
- Fbg (9 h): 221.6 mg/dL
- Hb (9 h): 13.2 g/dL
- Ht (9 h): 38.3%
- Lym (9 h): 80.6%
- MCH (9 h): 20.7 pg
- MCV (9 h): 60.2 fL
- Mono (9 h): 2.2%
- Neu (9 h): 15.2%
- PT (9 h): 13.3 s
- Plat (9 h): 123.1 x10_4/uL
- RBC (9 h): 637 x10_4/ul
- Ret (9 h): 5.7%
- WBC (9 h): 77.3 x10_2/uL
- KIDNEY_L (9 h): 1 g
- KIDNEY_R (9 h): 1 g
- KIDNEY_TOTAL (9 h): 1.9 g
- LIVER (9 h): 8.5 g
- ALP (9 h): 816 IU/L
- ALT (9 h): 26.6 IU/L
- AST (9 h): 60.4 IU/L
- BUN (9 h): 9.4 mg/dL
- CRE (9 h): 0.3 mg/dL
- Ca (9 h): 10.3 mg/dL
- Cl (9 h): 101 meq/L
- DBIL (9 h): 0.068 mg/dL
- GLC (9 h): 195.8 mg/dL
- IP (9 h): 9.9 mg/dL
- K (9 h): 3.6 meq/L
- LDH (9 h): 200.6 IU/L
- Na (9 h): 140.6 meq/L
- PL (9 h): 139 mg/dL
- RALB (9 h): 3.4 g/dL
- TBIL (9 h): 0.1 mg/dL
- TG (9 h): 47.2 mg/dL
- TP (9 h): 5.6 g/dL
- gamma-GTP (9 h): 0.6 IU/L
- TERMINAL_BW (24 h): 214.8 g
- APTT (24 h): 20.8 s
- Bas (24 h): 0%
- Eos (24 h): 0.8%
- Fbg (24 h): 200.6 mg/dL
- Hb (24 h): 13.7 g/dL
- Ht (24 h): 40.4%
- Lym (24 h): 86%
- MCH (24 h): 21.7 pg
- MCV (24 h): 63.9 fL
- Mono (24 h): 2%
- Neu (24 h): 10.6%
- PT (24 h): 13 s
- Plat (24 h): 127.9 x10_4/uL
- RBC (24 h): 632.8 x10_4/ul
- Ret (24 h): 6%
- WBC (24 h): 91 x10_2/uL
- KIDNEY_L (24 h): 1 g
- KIDNEY_R (24 h): 1 g
- KIDNEY_TOTAL (24 h): 2 g
- LIVER (24 h): 9.7 g
- ALP (24 h): 927.8 IU/L
- ALT (24 h): 34.6 IU/L
- AST (24 h): 65 IU/L
- BUN (24 h): 14.8 mg/dL
- CRE (24 h): 0.4 mg/dL
- Ca (24 h): 10.4 mg/dL
- Cl (24 h): 103.2 meq/L
- DBIL (24 h): 0.1 mg/dL
- GLC (24 h): 203.2 mg/dL
- IP (24 h): 7.9 mg/dL
- K (24 h): 3.6 meq/L
- LDH (24 h): 212.2 IU/L
- Na (24 h): 141 meq/L
- PL (24 h): 121.4 mg/dL
- RALB (24 h): 3.4 g/dL
- TBIL (24 h): 0.2 mg/dL
- TG (24 h): 88 mg/dL
- TP (24 h): 5.6 g/dL
- gamma-GTP (24 h): 0.8 IU/L
